The values that follow come from patent publication US6482800B1, “Methods to stimulate angiogenesis” (The University of Southern California, priority 1998, dated 2002).

“Also recorded” adds a separate entry of the source. Square brackets hold non-standard residues; d marks the D form. Ends that are not written are not given here. Nle = CCCC[C@H](N)C(=O)O

The subject of test [1] is Ischemic Myocardial Tissue. Description: Formation of collateral circulation in ischemic myocardial tissue after coronary artery ligation. It counts as in vivo, Rabbits. Particulars: rabbit, peptide 1 mg/ml; for Number of blood vessels present in the infarct site, Mean ± SEM: left circumflex and left anterior descending arteries ligated, 0.05 ml in Hydron vehicle injected in cardiac muscle, necropsy from day 7, microscopic examination; for Vascularization of the infarct site: 0.05 ml injected distal to coronary occlusion, versus vehicle. How it is done:
Rabbits underwent a surgical procedure under intramuscular anesthesia (Ketamine and Rompum) after shaving with animal clippers and preparation with betadine and isopropyl alcohol. A midline sternotomy was performed. After exposure of the pericardial sac, a three centimeter incision was made into the pericardium. After visualization of the epicardial surface, two coronary arteries, the left circumflex and the left anterior descending arteries, were exposed and ligated by 4-0 Vicryl suture. Vehicle (10% Hydron, 60% ethanol and 1% polyethylene glycol), with or without peptide (1 mg/ml, 0.05 ml) was injected in the cardiac muscle distal to the site of coronary occlusion. The sternum was then closed with 2-0 Silk. The muscle and skin were then closed with 3-0 Dexon II suture. Starting at 7 days after surgery, the animals were euthanized and necropsies performed. The number of blood vessels present in the infarct site was assessed grossly and by microscopic evaluation.

For another test, the target named is T1, AT2 receptor (Homo sapiens, UniProt P50052).
T1 sequence (P50052 1-363): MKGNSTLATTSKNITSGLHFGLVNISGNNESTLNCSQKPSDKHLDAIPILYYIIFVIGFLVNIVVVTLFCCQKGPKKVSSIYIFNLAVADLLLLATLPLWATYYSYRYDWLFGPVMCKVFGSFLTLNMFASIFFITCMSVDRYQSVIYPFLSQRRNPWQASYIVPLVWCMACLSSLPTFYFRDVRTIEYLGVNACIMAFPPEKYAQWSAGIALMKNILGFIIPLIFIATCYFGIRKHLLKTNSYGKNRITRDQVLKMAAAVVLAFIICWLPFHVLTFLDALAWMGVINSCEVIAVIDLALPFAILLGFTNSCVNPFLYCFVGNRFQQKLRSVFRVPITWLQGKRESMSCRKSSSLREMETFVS
The following applies: cited from earlier work.

Test [2] can be described thus: Unspecified test of effectiveness of AII fragments.
The subject of another test is burn areas. Description: Partial thickness thermal injury model. It counts as in vivo, Hartley guinea pigs. The following applies: 1 mg/ml peptide in 10% low-viscosity CMC, topical on burn; day 7.
Test [3] deals with Living skin equivalent (LSE) graft tissue. Description: Engraftment of living skin equivalent (LSE) on full thickness skin excision. Particulars: LSE soaked 15 minutes in 1.0 mg/ml peptide; day 7; compared to untreated LSE. It counts as in vivo, Swiss nude mice. The method, then: Male Swiss nude mice (22-24 g) were anesthetized with an intramuscular injection of Ketaset/Rompun and a 1 cm×1 cm full thickness skin excision was made on their dorsal surface. Living skin equivalent (LSE) was placed in the defect and trimmed with microscissors so that no gap was observed between the edges of the mouse skin and the LSE. The mice were divided into 6 groups based upon the peptide tested: (0 [LRS-Dextrose], or 1.0 mg/ml AII or AII analogues, AII (1-7) [SEQ ID NO:4]; Ala4AIII [SEQ ID NO:18]; Pro3AII [SEQ ID NO:31]; and Ile8AII [SEQ ID NO: 42]; see Table 3) and the LSE was soaked for 15 minutes in lactated Ringers solution with 5% dextrose with or without peptides prior to placement. After the graft was placed, the dorsal surface of the mouse was covered by petrolatum-embedded gauze followed by two adhesive bandages. After recovery from anesthesia, the mice were returned to their individual cages and observed daily until euthanasia. The mice received intramuscular analgesia for the first three days after surgery. No mouse lost its bandages prior to necropsy or bandage removal on day 7. The mice were necropsied on day 7. At necropsy, the degree of graft take and the appearance of the grafted tissue was noted prior to placement of the biopsy in 10% buffered formalin in preparation for paraffin embedding and section for hematoxylin and eosin staining.

The next test deals with rabbit corneal eye. The following applies: rabbit corneal eye model; cited from earlier work.
The subject of test [4] is chick chorioallantoic membrane. The following applies: chick chorioallantoic membrane model; cited from earlier work.
In the next test the test system is rat kidneys. Particulars: cited from earlier work.

On to “DR(nor)YIHP (DR[Nle]YIHP) [Analogue 9GD]”, for which, in test [1], the “Number of blood vessels present in the infarct site, Mean ± SEM” value (“Number of blood vessels present … Mean ± SEM” for short) was determined as 21.2 ± 2.8 and the “Vascularization of the infarct site” value is reported as “increase vascularization”.

DRKYIHP [Analogue 5GD]: in test [1], the “Number of blood vessels present … Mean ± SEM” value was 24.55 ± 2.34 and the “Vascularization of the infarct site” value is “increase vascularization”.

Consider “Asp-Arg-Val-Tyr-Ile-His-Pro-Phe (DRVYIHPF) [AII]”, for which, in the test with AT2 receptor, the “Affinity for AT2 relative to AT1” value was 100 times.

Take Tyr-Ile-His-Pro-Phe (YIHPF) [AII(4-8)]: the “Effectiveness (test not specified)” value in test [2] is listed as “not to be effective; also recorded: ineffective”.

For Asp-Arg-Val-Tyr-Ile-His-Pro-Phe [AII], the “Blood flow response (angiogenesis) after thermal injury, compared to control” value in the test with burn areas was “increased blood flow response compared to control”. Also, in test [3], the “Angiogenesis (vascular channel formation) in graft tissue” value is “increased” and the “Endothelial cell production in graft tissue” value is recorded as “increased”. Moreover, in the test with rabbit corneal eye, the Angiogenic activity result is “angiogenic”. Further, in test [4], the Angiogenic activity entry is reported as “angiogenic”. Moreover, in test [1], the “Number of blood vessels present … Mean ± SEM” value turned out to be 29.8 ± 12.3 and the “Vascularization of the infarct site” value is “increase vascularization”. In addition, the “Activation of collateral circulation via preformed blood vessels” value with rat kidneys is on record as “activate collateral circulation”.

In the case of His-Pro-Phe (HPF) [AII(6-8)], in test [2], the “Effectiveness (test not specified)” value is “not to be effective”.

As for “Asp-Arg-Val-Tyr-Ile-His-Pro (DRVYIHP) [AII(1-7)]”, in test [1], the “Number of blood vessels present … Mean ± SEM” value was 80.6 ± 4.5 and the “Vascularization of the infarct site” value is on record as “increase vascularization”.

Take DRVAIHP [Analogue 1GD]: in test [1], the “Number of blood vessels present … Mean ± SEM” value was 23.4 ± 8.6 and the “Vascularization of the infarct site” value is recorded as “increase vascularization”.

In the case of DRPYIHP [Analogue 2GD], in test [1], the “Number of blood vessels present … Mean ± SEM” value came to 31.2 ± 5.62 and the “Vascularization of the infarct site” value is on record as “increase vascularization”.
